Molecular target: P. falciparum apicoplast DNA polymerase (Pf-apPOL) (Plasmodium falciparum, UniProt Q8ILY1)
Assay: Fluorescence-based high-throughput DNA polymerase assay (molecular beacon), primary screen and dose-response;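 as to % inhibition ApPOL 90': test concentration in µM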;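 as to % inhibition apPOL 180': test concentration in µM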
Type: biochemical
Summary of the method: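 Single-point screening used 10 µM compound with 20 nM polymerase, 20 nM hairpin substrate and 6 µM dNTPs for 90 min at 25 °C. Confirmatory titrations (2.5–80 µM) followed fluorescence at three times, and IC50 was derived from a fit including a cooperativity term n.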

[1] = DRC-1; concentration 80 (unit not given); 10'
[2] = primary screen value of the 186 hits; unit not given; 90 min, 10 µM
[3] = primary screen value; head prints only 'DNA Pol'; 90 min, 10 µM
[4] = supplemental file 2, sheet IC50 nontoxic compounds; Pf-apPOL

Chain of P. falciparum apicoplast DNA polymerase (Pf-apPOL) (Q8ILY1 entry or part of it): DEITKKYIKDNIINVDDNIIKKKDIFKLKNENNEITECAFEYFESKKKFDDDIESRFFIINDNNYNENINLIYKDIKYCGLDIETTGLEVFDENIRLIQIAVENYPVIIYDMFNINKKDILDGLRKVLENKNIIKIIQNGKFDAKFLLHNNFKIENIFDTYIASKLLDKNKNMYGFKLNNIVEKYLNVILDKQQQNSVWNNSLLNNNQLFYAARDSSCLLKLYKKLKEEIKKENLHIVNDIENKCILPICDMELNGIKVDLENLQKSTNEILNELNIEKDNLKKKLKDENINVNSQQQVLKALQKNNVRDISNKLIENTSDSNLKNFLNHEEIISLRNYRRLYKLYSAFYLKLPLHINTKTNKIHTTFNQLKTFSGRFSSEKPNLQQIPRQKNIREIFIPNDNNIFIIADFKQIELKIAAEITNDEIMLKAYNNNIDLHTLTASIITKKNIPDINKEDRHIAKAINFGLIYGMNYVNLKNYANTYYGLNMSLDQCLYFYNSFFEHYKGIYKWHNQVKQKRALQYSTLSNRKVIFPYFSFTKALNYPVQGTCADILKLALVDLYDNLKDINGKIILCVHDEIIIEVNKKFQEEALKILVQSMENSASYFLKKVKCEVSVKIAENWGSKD

Compound: Cc1cc(C)nc(Nc2nc(CC(=O)Nc3nc(-c4ccco4)cs3)cs2)n1 [Molecule 92, O=C(Nc1scc(n1)c1ccco1)Cc1csc(n1)Nc1nc(C)cc(n1)C]
- % inhibition Apo pol 10' (DRC-1; concentration 2.5; 10'): -6.381%
- % inhibition Apol 90' (DRC-1; concentration 2.5; 90'): -8.504%
- % inhibition apPOL 180' (DRC-1; concentration 2.5; 180'): -14.5806%
- % inhibition Apo pol 10' (DRC-1; concentration 5; 10'): 13.7887%
- % inhibition Apol 90' (DRC-1; concentration 5; 90'): 3.55%
- % inhibition apPOL 180' (DRC-1; concentration 5; 180'): -5.24%
- % inhibition Apo pol 10' (DRC-1; concentration 10; 10'): 59.5511%
- % inhibition Apol 90' (DRC-1; concentration 10; 90'): 43.4607%
- % inhibition apPOL 180' (DRC-1; concentration 10; 180'): 29.1586%
- % inhibition Apo pol 10' (DRC-1; concentration 20; 10'): 80.2022%
- % inhibition Apol 90' (DRC-1; concentration 20; 90'): 69.8736%
- % inhibition apPOL 180' (DRC-1; concentration 20; 180'): 60.6937%
- % inhibition Apo pol 10' (DRC-1; concentration 40; 10'): 86.2847%
- % inhibition Apol 90' (DRC-1; concentration 40; 90'): 85.2413%
- % inhibition apPOL 180' (DRC-1; concentration 40; 180'): 83.5937%
- % inhibition Apo pol 10' [1]: 83.354%
- % inhibition Apol 90' (DRC-1; concentration 80; 90'): 86.9682%
- % inhibition apPOL 180' (DRC-1; concentration 80; 180'): 88.1815%
- % inhibition Apo pol 5' (DRC-2; 5'; concentration 5): 6%
- % inhibition Apo pol 5' (DRC-2; 5'; concentration 40): 41%
- % inhibition Apol 40' (DRC-2; 40'; concentration 10): 41%
- % inhibition Apol 40' (DRC-2; 40'; concentration 20): 59%
- % inhibition Apol 40' (DRC-2; 40'; concentration 80): 59%
- % inhibition ApPOL 90' (DRC-2; 90'; concentration 5): 6%
- % inhibition Apo pol 5' (DRC-2; concentration 2.5; 5'): 7%
- % inhibition Apol 40' (DRC-2; concentration 2.5; 40'): 9%
- % inhibition ApPOL 90' (DRC-2; concentration 2.5; 90'): 7.61%
- % inhibition apPOL 180' (DRC-2; concentration 2.5; 180'): 3.63%
- % inhibition Apo pol 5' (DRC-2; concentration 5; 5'): 6%
- % inhibition Apol 40' (DRC-2; concentration 5; 40'): 5.45%
- % inhibition ApPOL 90' (DRC-2; concentration 5; 90'): 6%
- % inhibition apPOL 180' (DRC-2; concentration 5; 180'): 0.203%
- % inhibition Apo pol 5' (DRC-2; concentration 10; 5'): 37%
- % inhibition Apol 40' (DRC-2; concentration 10; 40'): 41%
- % inhibition ApPOL 90' (DRC-2; concentration 10; 90'): 39%
- % inhibition apPOL 180' (DRC-2; concentration 10; 180'): 30%
- % inhibition Apo pol 5' (DRC-2; concentration 20; 5'): 43%
- % inhibition Apol 40' (DRC-2; concentration 20; 40'): 59%
- % inhibition ApPOL 90' (DRC-2; concentration 20; 90'): 60%
- % inhibition apPOL 180' (DRC-2; concentration 20; 180'): 57%
- % inhibition Apo pol 5' (DRC-2; concentration 40; 5'): 41%
- % inhibition Apol 40' (DRC-2; concentration 40; 40'): 65%
- % inhibition ApPOL 90' (DRC-2; concentration 40; 90'): 70%
- % inhibition apPOL 180' (DRC-2; concentration 40; 180'): 74%
- % inhibition Apo pol 5' (DRC-2; concentration 80; 5'): 29%
- % inhibition Apol 40' (DRC-2; concentration 80; 40'): 59%
- % inhibition ApPOL 90' (DRC-2; concentration 80; 90'): 66%
- % inhibition apPOL 180' (DRC-2; concentration 80; 180'): 73%
- DNA Pol [2]: 70
- DNA Pol [3]: 70

Compound: COc1cccc(C(=O)N2CCc3c(nc4cc(-c5ccccc5)[nH]n4c3=O)C2)c1OC [Molecule 22]
- IC50 [4]: 7.31 µM

Compound: COc1cc(/C=C2\C(=O)N(c3ccc(C(=O)O)cc3)N=C2C(F)(F)F)ccc1OCC(C)C [KU0069072]
- % inhibition Apo pol 10' (DRC-1; concentration 2.5; 10'): 27.3475%
- % inhibition Apol 90' (DRC-1; concentration 2.5; 90'): 15.3217%
- % inhibition apPOL 180' (DRC-1; concentration 2.5; 180'): 6.275%
- % inhibition Apo pol 10' (DRC-1; concentration 5; 10'): 10.3149%
- % inhibition Apol 90' (DRC-1; concentration 5; 90'): -0.5045%
- % inhibition apPOL 180' (DRC-1; concentration 5; 180'): -5.844%
- % inhibition Apo pol 10' (DRC-1; concentration 10; 10'): 46.067%
- % inhibition Apol 90' (DRC-1; concentration 10; 90'): 33.8794%
- % inhibition apPOL 180' (DRC-1; concentration 10; 180'): 21.4839%
- % inhibition Apo pol 10' (DRC-1; concentration 20; 10'): 70.4954%
- % inhibition Apol 90' (DRC-1; concentration 20; 90'): 63.3531%
- % inhibition apPOL 180' (DRC-1; concentration 20; 180'): 50.844%
- % inhibition Apo pol 10' (DRC-1; concentration 40; 10'): 88.0061%
- % inhibition Apol 90' (DRC-1; concentration 40; 90'): 82.4517%
- % inhibition apPOL 180' (DRC-1; concentration 40; 180'): 75.9132%
- % inhibition Apo pol 10' [1]: 95.6412%
- % inhibition Apol 90' (DRC-1; concentration 80; 90'): 93.9861%
- % inhibition apPOL 180' (DRC-1; concentration 80; 180'): 92.8608%
- % inhibition Apo pol 5' (DRC-2; concentration 2.5; 5'): 4%
- % inhibition Apol 40' (DRC-2; concentration 2.5; 40'): 4.27%
- % inhibition ApPOL 90' (DRC-2; concentration 2.5; 90'): 2.38%
- % inhibition apPOL 180' (DRC-2; concentration 2.5; 180'): 0.394%
- % inhibition Apo pol 5' (DRC-2; concentration 5; 5'): -3.52%
- % inhibition Apol 40' (DRC-2; concentration 5; 40'): -5%
- % inhibition ApPOL 90' (DRC-2; concentration 5; 90'): -7%
- % inhibition apPOL 180' (DRC-2; concentration 5; 180'): -9%
- % inhibition Apo pol 5' (DRC-2; concentration 10; 5'): 24%
- % inhibition Apol 40' (DRC-2; concentration 10; 40'): 28%
- % inhibition ApPOL 90' (DRC-2; concentration 10; 90'): 25%
- % inhibition apPOL 180' (DRC-2; concentration 10; 180'): 15%
- % inhibition Apo pol 5' (DRC-2; concentration 20; 5'): 44%
- % inhibition Apol 40' (DRC-2; concentration 20; 40'): 51%
- % inhibition ApPOL 90' (DRC-2; concentration 20; 90'): 50%
- % inhibition apPOL 180' (DRC-2; concentration 20; 180'): 40%
- % inhibition Apo pol 5' (DRC-2; concentration 40; 5'): 59%
- % inhibition Apol 40' (DRC-2; concentration 40; 40'): 70%
- % inhibition ApPOL 90' (DRC-2; concentration 40; 90'): 71%
- % inhibition apPOL 180' (DRC-2; concentration 40; 180'): 66%
- % inhibition Apo pol 5' (DRC-2; concentration 80; 5'): 65%
- % inhibition Apol 40' (DRC-2; concentration 80; 40'): 78%
- % inhibition ApPOL 90' (DRC-2; concentration 80; 90'): 80%
- % inhibition apPOL 180' (DRC-2; concentration 80; 180'): 82%
- DNA Pol [2]: 76
- DNA Pol [3]: 76

Compound: Cc1ccccc1NC(=O)Cn1ccc2c(=O)[nH]ccc21 [Molecule 50, O=C(Cn1ccc2c1cc[nH]c2=O)Nc1ccc(cc1)C]
- DNA Pol ('DNA Pol' of the 186 hits list (screen value); 90 min, 10 µM): 47
- % inhibition Apo pol 10' (DRC-1; 10'; conc 2.5): 6.138%
- % inhibition Apo pol 10' (DRC-1; 10'; conc 5): 25.5303%
- % inhibition Apo pol 10' (DRC-1; 10'; conc 10): 50.7772%
- % inhibition Apo pol 10' (DRC-1; 10'; conc 20): 84.6667%
- % inhibition Apo pol 10' (DRC-1; 10'; conc 40): 88.6284%
- % inhibition Apo pol 10' (DRC-1; 10'; conc 80): 86.1182%
- % inhibition Apol 90' (DRC-1; 90'; conc 2.5): 0%
- % inhibition Apol 90' (DRC-1; 90'; conc 5): 12.4445%
- % inhibition Apol 90' (DRC-1; 90'; conc 10): 34.9563%
- % inhibition Apol 90' (DRC-1; 90'; conc 20): 76.8341%
- % inhibition Apol 90' (DRC-1; 90'; conc 40): 88.9511%
- % inhibition Apol 90' (DRC-1; 90'; conc 80): 91.6504%
- % inhibition apPOL 180' (DRC-1; 180'; conc 2.5): -5.117%
- % inhibition apPOL 180' (DRC-1; 180'; conc 5): 1.53%
- % inhibition apPOL 180' (DRC-1; 180'; conc 10): 18.0817%
- % inhibition apPOL 180' (DRC-1; 180'; conc 20): 64.1474%
- % inhibition apPOL 180' (DRC-1; 180'; conc 40): 85.8042%
- % inhibition apPOL 180' (DRC-1; 180'; conc 80): 93.6476%
- % inhibition Apo pol 5' (DRC-2; 5'; conc 2.5): 8%
- % inhibition Apo pol 5' (DRC-2; 5'; conc 5): 16%
- % inhibition Apo pol 5' (DRC-2; 5'; conc 10): 39%
- % inhibition Apo pol 5' (DRC-2; 5'; conc 20): 47%
- % inhibition Apo pol 5' (DRC-2; 5'; conc 40): 49%
- % inhibition Apo pol 5' (DRC-2; 5'; conc 80): 42%
- % inhibition Apo pol 5' (DRC-2; 5'; concentration 5): 16%
- % inhibition Apol 40' (DRC-2; 40'; conc 2.5): 5%
- % inhibition Apol 40' (DRC-2; 40'; conc 5): 16%
- % inhibition Apol 40' (DRC-2; 40'; conc 10): 44%
- % inhibition Apol 40' (DRC-2; 40'; conc 20): 64%
- % inhibition Apol 40' (DRC-2; 40'; conc 40): 70%
- % inhibition Apol 40' (DRC-2; 40'; conc 80): 67%
- % inhibition Apol 40' (DRC-2; 40'; concentration 5): 16%
- % inhibition ApPOL 90' (DRC-2; 90'; conc 2.5): 0.827%
- % inhibition ApPOL 90' (DRC-2; 90'; conc 5): 13%
- % inhibition ApPOL 90' (DRC-2; 90'; conc 10): 41%
- % inhibition ApPOL 90' (DRC-2; 90'; conc 20): 65%
- % inhibition ApPOL 90' (DRC-2; 90'; conc 40): 75%
- % inhibition ApPOL 90' (DRC-2; 90'; conc 80): 73%
- % inhibition apPOL 180' (DRC-2; 180'; conc 2.5): -4%
- % inhibition apPOL 180' (DRC-2; 180'; conc 5): 2.7%
- % inhibition apPOL 180' (DRC-2; 180'; conc 10): 29%
- % inhibition apPOL 180' (DRC-2; 180'; conc 20): 60%
- % inhibition apPOL 180' (DRC-2; 180'; conc 40): 78%
- % inhibition apPOL 180' (DRC-2; 180'; conc 80): 78%
- % inhibition apPOL 180' (DRC-2; 180'; concentration 40): 78%
- % inhibition apPOL 180' (DRC-2; 180'; concentration 80): 78%
- DNA Pol (primary screen value, "DNA Pol"; 90 min, 10 µM): 47

Compound: Cc1cc(C)nc(Nc2nc(CC(=O)Nc3nc(-c4ccco4)cs3)cs2)n1 [Molecule 92]
- IC50 [4]: 8.58 µM

— PMC9090415, “Discovery of small molecule inhibitors of Plasmodium falciparum apicoplast DNA polymerase” (Journal of Enzyme Inhibition and Medicinal Chemistry, 2022)
